The source of these data is ChEMBL document CHEMBL4477224, “Antidiabetic effect, antioxidant activity, and toxicity of 3',4'-Di-O-acetyl-cis-khellactone in Streptozotocin-induced diabetic rats” (Bioorg Med Chem Lett, 2016).

The source made the active and inactive calls. No cut-off for these calls is given here.

Data set [1] is described as follows: Mutagenicity in Salmonella typhimurium TA102 assessed as mutagenic index at 100 uM/plate after 48 hrs in absence of S9 fraction by Ames test relative to control. The following applies: salmonella enterica subsp. enterica serovar typhimurium, s9, 48 h. The format is toxicity.
The subject of data set [2] is Rattus norvegicus. The data set is described as follows: Antidiabetic activity in STZ-induced diabetic Wistar rat liver assessed as effect on central vein architecture at 15 mg/kg, po administered for 15 days by hematoxylin/eosin staining based microscopy. Type of data set: functional, organism-based.
For data set [3], the system named is Rattus norvegicus. The data set is described as follows: Antidiabetic activity in STZ-induced diabetic Wistar rat blood assessed as cholesterol level at 15 mg/kg, po administered for 15 days (reference value: 80.09 +/- 9.35 mg/dl). The format is functional.
Data set [4] concerns Rattus norvegicus. Description: Antidiabetic activity in STZ-induced diabetic Wistar rat blood assessed as LDL level at 15 mg/kg, po administered for 15 days (reference value: 23.11 +/- 9.82 mg/dl). The format is functional.
Data set [5] in a line: Mutagenicity in Salmonella typhimurium TA98 assessed as mutagenic index at 100 uM/plate after 48 hrs in absence of S9 fraction by Ames test relative to control. The following applies: salmonella enterica subsp. enterica serovar typhimurium, s9, 48 h. Type of data set: toxicity.
The test system of data set [6] is Rattus norvegicus. Description: Antidiabetic activity in STZ-induced diabetic Wistar rat assessed as decrease in blood glucose level at 15 mg/kg, po administered for 15 days post STZ challenge measured on day 21 by glucometry relative to control. The format is functional. Further details: scale not given: the % may be the effect or the level left.
Data set [7] is described as follows: Mutagenicity in Salmonella typhimurium TA102 assessed as mutagenic index at 17.30 uM/plate after 48 hrs in presence of S9 fraction by Ames test relative to control. The format is toxicity, subcellular. The following applies: salmonella enterica subsp. enterica serovar typhimurium, s9, 48 h, 17.3 µM.
The nature of data set [8]: Mutagenicity in Salmonella typhimurium TA102 assessed as mutagenic index at 34.60 uM/plate after 48 hrs in absence of S9 fraction by Ames test relative to control. Conditions: salmonella enterica subsp. enterica serovar typhimurium, s9, 48 h, 34.6 µM. The format is toxicity.
Data set [9] is described as follows: Acute toxicity in ig dosed BALB/c mouse assessed as mortality measured for 14 days. The format is organism-based. The following applies: in vivo, po.
A short description of data set [10]: Mutagenicity in Salmonella typhimurium TA98 assessed as mutagenic index at 8.65 uM/plate after 48 hrs in presence of S9 fraction by Ames test relative to control. Conditions: salmonella enterica subsp. enterica serovar typhimurium, s9, 48 h. Type of data set: toxicity, subcellular.
Data set [11] in a line: Mutagenicity in Salmonella typhimurium TA102 assessed as mutagenic index at 50 uM/plate after 48 hrs in absence of S9 fraction by Ames test relative to control. The format is toxicity. Conditions: salmonella enterica subsp. enterica serovar typhimurium, s9, 48 h.
The nature of data set [12]: Mutagenicity in Salmonella typhimurium TA100 assessed as mutagenic index at 50 uM/plate after 48 hrs in presence of S9 fraction by Ames test relative to control. The format is toxicity, subcellular. Conditions: salmonella enterica subsp. enterica serovar typhimurium, s9, 48 h.
The nature of data set [13]: Mutagenicity in Salmonella typhimurium TA100 assessed as mutagenic index at 17.30 uM/plate after 48 hrs in presence of S9 fraction by Ames test relative to control. Type of data set: toxicity, subcellular. Conditions: salmonella enterica subsp. enterica serovar typhimurium, s9, 48 h, 17.3 µM.
The nature of data set [14]: Toxicity in STZ-induced diabetic Wistar rat kidney assessed as macroscopic pathologic lesions at 15 mg/kg, po administered for 15 days. The format is organism-based. Conditions: in vivo, 360 h.
For data set [15], the system named is Rattus norvegicus. Description: Antioxidant activity in STZ-induced diabetic Wistar rat liver assessed as catalase level measured as H2O2 consumption per mg of protein at 15 mg/kg, po administered for 15 days (reference value: 68.9 +/- 11.1 microM/min). Type of data set: functional.
Data set [16] in a line: Mutagenicity in Salmonella typhimurium TA98 assessed as mutagenic index at 50 uM/plate after 48 hrs in absence of S9 fraction by Ames test relative to control. Type of data set: toxicity. The following applies: salmonella enterica subsp. enterica serovar typhimurium, s9, 48 h.
Data set [17] relates to Rattus norvegicus. Description: Antidiabetic activity in STZ-induced diabetic Wistar rat assessed as effect on hepatocytes surrounding central vein architecture at 15 mg/kg, po administered for 15 days by hematoxylin/eosin staining based microscopy. Type of data set: functional, organism-based.
A short description of data set [18]: Mutagenicity in Salmonella typhimurium TA102 assessed as mutagenic index at 100 uM/plate after 48 hrs in presence of S9 fraction by Ames test relative to control. The format is toxicity, subcellular. The following applies: salmonella enterica subsp. enterica serovar typhimurium, s9, 48 h.
The test system of data set [19] is Rattus norvegicus. The data set is described as follows: Antidiabetic activity in STZ-induced diabetic Wistar rat blood assessed as creatinine level at 15 mg/kg, po administered for 15 days (reference value: 0.56 +/- 0.03 mg/dl). Type of data set: functional.
The nature of data set [20]: Toxicity in STZ-induced diabetic Wistar rat liver assessed as macroscopic pathologic lesions at 15 mg/kg, po administered for 15 days. Type of data set: organism-based. The following applies: in vivo, 360 h.
Data set [21] has as its system Rattus norvegicus. Description: Antidiabetic activity in STZ-induced diabetic Wistar rat assessed as change in fasting blood glucose level at 15 mg/kg, po administered for 15 days post STZ challenge measured on day 21 by glucometry (reference value: 72.90 +/- 5.2 mg/dl). The format is functional.

Take `CC(=O)O[C@@H]1c2c(ccc3ccc(=O)oc23)OC(C)(C)[C@@H]1OC(C)=O` (relative stereo) [QUIANHUCOUMARIN D]: the Ratio in data set [1] is recorded as 0.8; in data set [5], 0.4; in data set [7] it was 1.2; in [8], 1; in data set [10], 1.1; in [11], 1.1. Also, the Ratio was 0.9 in data set [12], 0.9 in [13], 1.1 in [16] and 0.9 in data set [18]. Besides, the result with Rattus norvegicus [2] and in the data set with Rattus norvegicus [17] was Active. Besides, the Activity in the data set on Rattus norvegicus [3] is 70.84 mg/dL; in the data set with Rattus norvegicus [4] it was 22.38 mg/dL; in the data set on Rattus norvegicus [6], 60.9%; in data set [14], “Non-Toxic”; in the data set with Rattus norvegicus [15] it was 94.8 µM/min; in the data set with Rattus norvegicus [19] it was 0.51 mg/dL. For the same molecule, the Activity result in data set [20] was “Non-Toxic”; in the data set with Rattus norvegicus [21], 128.3 mg/dL. Besides, the LD50 at 336 h in data set [9] was above 2000 mg/kg.
